Results from patent US11759533B2, “Methods and compositions for modulating gene expression” (Wisconsin Alumni Research Foundation, priority 2017, dated 2023).

Legend:
frataxin (FXN) mRNA = assay: FXN mRNA by RT-PCR (relative to TBP) in FRDA patient cell line GM15850; assay type: cell-based, human; conditions: GM15850, 1 μM, 24 hours
Protocol: Cells were maintained in RPMI 1640 supplemented with 2 mM L-glutamine and 15% fetal bovine serum (FBS) at 37° C. in a humidified atmosphere of 5% CO2. Cell density was maintained between 200,000 cells/mL and 1,000,000 cells/mL. Cell growth and morphology were monitored by phase contrast microscopy and cell viability by trypan blue exclusion. To maintain cell density, cells were passaged by centrifuging at 500 g for 3 minutes and resuspending the cells in fresh media. To avoid cross-contamination, cells were handled separately with separate bottles of media. Relevant data were obtained from cell lines passaged between P9 and P12.
To prepare agents for treatment of cells, each agent or agent mixture tested was dissolved in DMSO. […] 500,000 cells ells were seeded at 500,000 cells/mL and treated 24 h with agents in DMSO (0.1-0.2% DMSO final concentration). For the 24 hour treatment, cell media was changed immediately before treatment with agent and agent was added at the zero time point. The media was not changed during the 24 hour treatment time period.
After treatment with the agents or agent mixtures, cells were harvested and total RNA was purified with the RNeasy Mini Kit (Qiagen, Valencia, Calif.), including on-column DNase I treatment (ZYMO Research, Catalog number E1010), according to manufacturer's directions. […]

FXN protein [1] = assay: Immunoblot for FXN protein in GM15851 cells; assay type: cell-based, human; conditions: GM15851, 24 hours, 1 μM (Agent 4: 0.1, 0.5 or 1 μM)
Protocol: (§1) In FIG. 3A, “50” refers to GM15850 cells and in FIG. 3B, “51” refers to GM15851 cells. Cells were treated as in Example 4.
(§2) Total cell extracts from cell lines were used for immunoblot analysis. Antibodies to frataxin (abcam ab110328, 1:250 dilution) or alpha-Tubulin (Cell Signaling Technologies 2144, 1:1000 dilution) were used. Signal was detected by chemiluminescence with HRP-conjugated secondary antibodies (Bio-Rad 172-1011, 1:2000 for anti-mouse frataxin and GE NA934V, 1:2000 for anti-rabbit alpha-Tubulin).

FXN-GAA-Luc = assay: Luciferase reporter assay, FXN-GAA-Luc line (~310 GAA repeats); assay type: cell-based; conditions: 24 hours, 2 μM unless otherwise indicated (Agent 4 at 1 or 2)
Protocol: This reporter, which includes a ˜310 GAA repeat, recapitulates both the transcriptional repression and the heterochromatin formation at the endogenous FXN locus that are hallmarks of the FRDA disease.
Cells containing FXN-Luc or FXN-GAA-Luc were seeded onto 24-well plates at a confluency of 20%. The next day, media was refreshed and cells were treated 24 hours with the indicated compound at the indicated concentration. Next, cell lysates were harvested and analyzed with the Luciferase Assay System (Promega, Madison, Wis.) per manufacturer's directions on a Synergy H4 Hybrid Reader (BioTek, Winooski, Vt.).

FXN protein [2] = assay: Immunoblot for FXN protein in GM15850 cells; assay type: cell-based, human; conditions: GM15850, 24 hours, 1 μM (Agent 4: 0.1, 0.5 or 1 μM)
Protocol: as §1, §2

Cc1sc2c(c1C)C(c1ccc(Cl)cc1)=N[C@@H](CC(=O)NCCOCCOCCOCCOCCOCCOCCC(=O)NCCCN(C)CCCNC(=O)CCNC(=O)c1cc(NC(=O)c3cc(NC(=O)c4nc(NC(=O)c5cc(NC(=O)CCCNC(=O)c6nc(NC(=O)c7cc(NC(=O)c8cc(NC(=O)c9sccc9Cl)cn8C)cn7C)cn6C)cn5C)cn4C)cn3C)cn1C)c1nnc(C)n1-2 [Control Conjugate 2]
increase in FXN mRNA levels (frataxin (FXN) mRNA): no increase
FXN protein (immunoblot) (FXN protein [1]): increase in FXN protein

Cc1sc2c(c1C)C(c1ccc(Cl)cc1)=N[C@@H](CC(=O)OC(C)(C)C)c1nnc(C)n1-2 [JQ1]
increase in FXN mRNA levels (frataxin (FXN) mRNA): no increase
luciferase activity (FXN-GAA-Luc): Significant activation was not observed
FXN protein (immunoblot) (FXN protein [2]): Neither polyamide alone (3), nor JQ1, nor the unconjugated treatment induced increased production of FXN protein
